Assays:
[1] = target: T1, HIV reverse transcriptase (HIV-RT) (Human immunodeficiency virus type 1 group M subtype B, UniProt P04585); assay: in vitro inhibition test against HIV reverse transcriptase; format: biochemical, HIV (AIDS virus); details: read-out: Inhibitory effect of HIV-RT; for inhibition at 0.1 µg/mL: 0.1 μg/ml; for inhibition at 1 µg/mL: 1 μg/ml
T1 construct: purchased Boehringer Mannheim
Experimental: Experiment 3: The in vitro inhibition test against HIV reverse transcriptase
The inhibitory activity in vitro was measured using a non-radioactive reverse transcriptase assay Kit (Boehringer Mannheim).
At first, 20 μl(40 ng) HIV-RT was added to the wells coated with streptavidin and with the addition of 20 μl, reaction mixture containing template/primer hybrid poly(A)/oligo(dT)15 and DIG-(digoxigenin)-dUTP, biotin-dUTP and TTP, 20 μl test compound was added and reacted at 37° C. for 1 hour. The control without test compound was used for the comparison of related activity. Since DNA containing nucleotide labeled with digoxigenin and biotine was prepared by the action of HIV-RT, it was combined with streptavidin coated at the bottom of the wells. After the reaction was completed, remaining impurities were removed by washing each well with 20 μl buffer solution (pH 7.0) for 30 seconds 5 times and with the addition of 200 μl anti-DIG-POD antibody, the mixture was reacted at 37° C. for 1 hour. For the removal of remaining impurities again, the reacting solution was washed with a buffer solution and with the addition of 200μl ABTS™ each, a substrate of POD(peroxidase), the solution was reacted at room temperature for 30 minutes. The absorbance was read by ELISA reader at 405 nm for the assay of reverse transcriptase activity and its inhibition activity.

[2] = target: T2, HBV polymerase reverse transcriptase (HBV-RT) (Hepatitis B virus genotype D subtype ayw, UniProt P03156); assay: inhibitory activity against HBV polymerase in vitro (reverse transcriptase activity); format: biochemical; details: read-out: Inhibitory effect of HBV-RT; for inhibition at 0.1 µg/mL: 0.1 μg/ml; for inhibition at 1 µg/mL: 1 μg/ml
T2 construct: made in house; host or cells: E. coli
Excerpt: Experiment 1: The inhibitory activity against HBV polymerase in vitro.
Recently, the inventors of the present invention have produced a recombinant HBV polymerase that is expressed from E.coli transformant, measured its enzyme activity and filed patent applications thereof [Korean Patent Application Nos. 94-3918, 96-33998 and 96-63255].
The inventions have established a method of measuring the reverse transcriptase activity of HBV polymerase in vitro. The fundamental principle is the same as the ELISA method, and after reacting the substrate with biotin- and DIG-modified nucleotide, a method of recognizing the polymerized substrate as anti-DIG antibody with peroxidase was used. […] and 20 μ of test compound were mixed and reacted at 14~30° C. for 18~24 hours. Then, the inhibitory effect of test compound against reverse trascriptase activity in the HBV polymerase was examined, compared with the results of control tests without the test compound.

T2 sequence (P03156 whole entry): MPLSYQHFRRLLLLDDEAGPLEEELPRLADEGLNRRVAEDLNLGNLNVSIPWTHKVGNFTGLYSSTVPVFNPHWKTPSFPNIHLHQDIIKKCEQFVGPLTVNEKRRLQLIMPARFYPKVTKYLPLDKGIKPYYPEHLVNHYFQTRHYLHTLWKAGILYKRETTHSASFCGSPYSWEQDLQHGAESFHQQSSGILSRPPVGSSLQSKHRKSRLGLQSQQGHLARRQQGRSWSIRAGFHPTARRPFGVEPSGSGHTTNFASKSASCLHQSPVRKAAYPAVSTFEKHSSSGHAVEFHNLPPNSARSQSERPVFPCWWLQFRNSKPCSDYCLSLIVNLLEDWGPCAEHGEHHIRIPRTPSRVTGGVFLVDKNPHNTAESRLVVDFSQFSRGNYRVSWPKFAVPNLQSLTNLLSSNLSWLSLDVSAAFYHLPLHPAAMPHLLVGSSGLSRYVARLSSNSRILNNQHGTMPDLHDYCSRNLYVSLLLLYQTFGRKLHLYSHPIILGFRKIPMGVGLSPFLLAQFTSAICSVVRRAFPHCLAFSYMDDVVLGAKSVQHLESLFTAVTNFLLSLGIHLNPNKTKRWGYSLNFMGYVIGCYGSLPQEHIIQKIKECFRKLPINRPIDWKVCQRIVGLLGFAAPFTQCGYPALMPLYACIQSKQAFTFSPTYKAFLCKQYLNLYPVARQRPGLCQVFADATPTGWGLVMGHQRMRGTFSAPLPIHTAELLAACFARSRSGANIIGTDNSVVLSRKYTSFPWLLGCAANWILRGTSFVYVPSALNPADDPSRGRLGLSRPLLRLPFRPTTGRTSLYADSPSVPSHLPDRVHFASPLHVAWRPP

Row | inhibition at 0.1 µg/mL [2] | inhibition at 1 µg/mL [2] | Structure (SMILES) | inhibition at 0.1 µg/mL [1] | inhibition at 1 µg/mL [1]
1 | 28% | 63% | CCNc1cccnc1N1CCN(C(=O)c2ccc(C(=O)N(CC)CCO)cc2)CC1 [Compound No. 18, 1-[N-Ethyl-N-(2-hydroxyethyl)carbamoyl]-4-[1-[3-(ethylamino)-2-pyridyl]piperazin-4-yl-carbonyl]benzene] |  | 
2 | 43% | 58% | CC(C)Nc1cccnc1N1CCN(C(=O)c2ccc(C(=O)N3CCN(C)CC3)cc2)CC1 [Compound No. 20, 1-[4-[1-[3-(Isopropylamino)-2-pyridyl]piperazin-4-yl-carbonyl]benzoyl]-4-methylpiperazine] |  | 
3 | 37% | 69% | CCNc1cccnc1N1CCN(C(=O)c2ccc(C(=O)N3CCN(CCO)CC3)cc2)CC1 [Compound No. 33, 1-[4-[1-[3-(Ethylamino)-2-pyridyl]piperazin-4-yl-carbonyl]benzoyl]-4-(2-hydroxyethyl)piperazine] |  | 
4 | 58% | 76% | CC(C)Nc1cccnc1N1CCN(C(=O)c2ccc(C(=O)NC[C@H](C)O)cc2)CC1 [Compound No. 56, 1-[N-[(2S)-2-Hydroxypropyl]carbamoyl]-4-[1-[3-(isopropylamino)-2-pyridyl]piperazin-4-yl-carbonyl]benzene] |  | 
5 | 51% | 63% | CC(C)Nc1cccnc1N1CCN(C(=O)c2ccc(C(=O)NCC3CCCO3)cc2)CC1 (stereo not drawn) [Compound No. 72, 4-[1-[3-(Isopropylamino)-2-pyridyl]piperazin-4-yl-carbonyl]-1-[N-[(tetrahydrofuran-2-yl)methyl]carbamoyl]benzene] |  | 

More lines, now with the values behind:

Row | Structure (SMILES) | inhibition at 0.1 µg/mL [2] | inhibition at 1 µg/mL [2] | inhibition at 0.1 µg/mL [1] | inhibition at 1 µg/mL [1]
6 | CCCN(CCO)C(=O)c1ccc(C(=O)N2CCN(c3ncccc3NC(C)C)CC2)cc1 [Compound No. 7, 1-[N-(2-Hydroxyethyl)-N-propylcarbamoyl]-4-[1-[3-(isopropylamino)-2-pyridyl]piperazin-4-yl-carbonyl]benzene] |  |  | 21% | 60%
7 | CCN(CC)C(=O)c1ccc(C(=O)N2CCN(c3ncccc3NC(C)C)CC2)cc1 [Compound No. 13, 1-[N,N-Diethylcarbamoyl]-4-[1-[3-(isopropylamino)-2-pyridyl]piperazin-4-yl-carbonyl]benzene] | 55% | 70% |  | 
8 | CC(C)Nc1cccnc1N1CCN(C(=O)c2ccc(C(=O)N(C(C)C)C(C)C)cc2)CC1 [Compound No. 14, 1-[N,N-Bis(1-methylethyl)carbamoyl]-4-[1-[3-(isopropylamino)-2-pyridyl]piperazin-4-yl-carbonyl]benzene] |  |  | 52% | 59%
9 | CC(C)Nc1cccnc1N1CCN(C(=O)c2ccc(C(=O)NCCOCCO)cc2)CC1 [Compound No. 17, 1-[N-[2-(2-Hydroxyethoxy)ethyl]carbamoyl]-4-[1-[3-(isopropylamino)-2-pyridyl]piperazin-4-yl-carbonyl]benzene] |  |  | 35% | 53%
10 | CCN1CCN(C(=O)c2ccc(C(=O)N3CCN(c4ncccc4NC(C)C)CC3)cc2)CC1 [Compound No. 21, 4-Ethyl-1-[4-[1-[3-(isopropylamino)-2-pyridyl]piperazin-4-yl-arbonyl]benzoyl]piperazine] |  |  | 20% | 64%
11 | CC(C)Nc1cccnc1N1CCN(C(=O)c2ccc(C(=O)N[C@@H](C)CO)cc2)CC1 [Compound No. 35, 1-[N-[(1S)-2-Hydroxy-1-methylethyl]carbamoyl]-4-[1-[3-(isopropylamino)-2-pyridyl]piperazin-4-yl-carbonyl]benzene] | 62% | 82% |  | 
12 | CC(C)Nc1cccnc1N1CCN(C(=O)c2ccc(C(=O)N[C@H](CO)CC3CCCCC3)cc2)CC1 [Compound No. 47, 1-[N-[(1S)-1-(Cyclohexylmethyl)-2-hydroxyethyl]carbamoyl]-4-[1-[3-(isopropylamino)-2-pyridyl]piperazin-4-yl-carbonyl]benzene] |  |  | 43% | 54%

— patent US5922871A, “Terephthalamide derivatives” (Dongwha Pharmaceutical Ind. Co., Ltd., priority 1997, dated 1999)
